{
  "source": "paper PMC11388019",
  "about": "“Autoregulatory mechanism of enzyme activity by the nuclear localization signal of lysine-specific demethylase 1 [drawing 1]” (The Journal of Biological Chemistry, 2024)",
  "key": {"[1]": {"target": "T1, ΔN LSD1-CoREST (Homo sapiens, UniProt O60341+Q9UKL0)", "T1 construct": "The N terminally truncated (aa 171–852) LSD1 plasmid (pGEX-6P-1-ΔN LSD1); GST (cleaved yes); made in house; host or cells: E. coli Rosetta (DE3) pLysS, co-expression", "experiment": "Horseradish peroxidase (HRP) coupled demethylase assay on 21 a.a. H3K4me2 peptide substrate", "assay_type": "biochemical", "settings": "for effect of peptide on LSD1 demethylation activity (absorbance vs time): 10 μM peptide, 10 μM H3K4me2 21 aa substrate; for effect of peptide on LSD1 demethylation activity (absorbance vs time) / Ki: 0.3 μM ΔN LSD1-CoREST; for effect of peptide on LSD1 demethylation activity (absorbance vs time) / Ki / acts as substrate of LSD1: HRP-coupled assay; for Ki: H3K4me2 (1-21) peptide 10-60 μM, 50 mM Hepes pH 7.5, 25 °C, competitive fit, N = 2, read-out: inhibition constant Ki (Ki app) on H3K4me2 peptide substrate; for fold weaker inhibition (Ki) compared to the NLS peptide: 21 aa H3K4me2 model peptide substrate; for acts as substrate of LSD1: 10 μM peptide alone", "protocol": "An inhibition study was performed using horseradish peroxidase (HRP) coupled demethylase assay in the presence of NLS, P1, or P2 peptides, using the 21 a.a H3K4me ([2]) peptide as substrate ([9], [38]). […] When a full inhibition study was performed using different concentrations of the 21 a.a. […] Control experiments indicate that the NLS peptide directly influences the LSD1 catalyzed reaction and that inhibition is not an artifact of the HRP-coupled assay system (Fig. S8).\nLSD1-CoREST activity assays were performed using well-established peroxidase-coupled assay that monitors H2O2 production under aerobic conditions ([48]). Initial velocity measurements were measured using a Shimadzu UV2600 UV-Visible spectrophotometer equipped with thermostated cell holder (T = 25 °C). ΔN LSD1-CoREST was buffer exchanged into 25 mM Hepes pH 7.4, 100 mM NaCl, and 5 mM TCEP buffer. Each 150 μl reaction mixture contained 50 mM Hepes (Na) pH 7.5, 0.3 μM ΔN LSD1-CoREST, 1 μg of HRP, 0.1 mM 4-aminoantipyrine, and contained various substrate concentrations (10, 20, 30, 40, and 60 μM). Enzyme reactions were initiated by the addition of substrate; H3K4me2 peptide aa 1 to 21 or the NLS-K114me2 peptide (107–120, dimethylated at K114), into the reaction mixture in quartz cuvette. Activity region monitored was 0 to 30 s, and total time of each measurement was 180 s. Baseline correction was done at 505 to 525 nm. Changes in absorbance were measured at 515 nm wavelength and initial velocity calculations were done using an extinction coefficient of 26,000 M^−1 cm^−1 by Graphpad Prism (http://www.graphpad.com). Initial velocity values obtained from absorbance versus time graph, and they were fitted to Michaelis-Menten equation nonlinear regression and obtained Vmax (maximum velocity), apparent kmax (turnover number) and Km (Michaelis constant).\nPeptide inhibition assays in presence of model substrate were conducted as follows using a peroxidase-coupled assay that monitors H2O2 production under aerobic conditions. A 150 μl reaction mixture contained 50 mM Hepes (Na) pH 7.5, 0.3 μM ΔN LSD1-CoREST, 1 μg of HRP, 0.1 mM 4-aminoantipyrine, 1.0 mM 3,5-dichloro-2- hydroxybenzenesulfonic acid, NLSK114me2 10 μM (as inhibitor and substrate)/NLSp∗ 10 μM/NLS 10 μM/P1 10 μM/P2 10 μM and H3K4me2 21aa substrate 10 μM. Enzyme reactions were initiated by the addition of substrate; H3K4me2 peptide aa (1–21) into the reaction mixture in quartz cuvette. Initial velocity values obtained from absorbance versus time graph were fitted to inhibition models using nonlinear regression fit. Complete kinetics profiles were performed for the NLS and NLSp∗ peptides, where different concentrations of NLS (0, 2.5 μM, 5 μM, 10 μM) or NLSp∗ (0, 10 μM, 40 μM, 100 μM) were incubated with freshly prepared ΔN LSD1-CoREST."}, "[2]": {"target": "T1, ΔN LSD1-CoREST", "experiment": "Quantitative Western blot assay of demethylation on H3K4me2 nucleosome substrates in presence of NLS peptide", "assay_type": "biochemical", "settings": "2 μM ΔN LSD1-CoREST, 100 nM H3K4me2 nucleosome (147 bp DNA), 50 mM Hepes pH 8.0, 50 mM KCl, 25 °C, from relative kobs, Hill coefficient set to 1, N = 2; read-out: IC50 for inhibition of demethylation on H3K4me2 nucleosome substrates", "source_text": "Based on these coupled assay results and data (Fig. 2, C and D), we developed an in vitro quantitative WB assay to monitor LSD1-catalyzed demethylation on H3K4me2 nucleosome substrates. This approach provides enhanced reliability of the antibody reagents as well as a robust measure of the impact of the NLS peptide on LSD1’s ability to demethylate nucleosomes ([39]). A series of time-course assays with increasing NLS peptide measured the fraction of demethylated H3K4me2 nucleosomes containing a 147 bp DNA, and this was visualized using an anti-H3K4me2-specific antibody or a control H3 antibody (Fig. 4, B and C). Here, dividing the H3K4me2 antibody signal by the H3 antibody signal allowed for quantitation of each data point, where the disappearance of H3K4me2 signal directly corresponds to the NLS's ability to impact LSD1’s demethylation activity. The H3K4me2/H3 ratios were normalized at time zero and plotted as a function of time (minutes), and the determined rate constant (kobs) values were evaluated at increasing NLS concentrations (Fig. 4, B and C).\nQuantitative WB activity assays of the ΔN LSD1- CoREST and FL-LSD1- CoREST at 2, 5, 10, and 20 μM concentrations were performed in reaction conditions containing 50 mM Hepes (pH 8.0), 50 mM KCl, 5% glycerol, and 1 mM TCEP and were initiated with 100 nM nucleosome substrate. […]"}, "[3]": {"target": "LSD1", "settings": "H3K4me2 model peptide substrate, Ki/M, read-out: Ki (Ki app), Table S4, cited from earlier work", "from_the_text": "Comparative (Ki app) data of peptide sequences that inhibit LSD1-catalytzed demethylation on a H3K4me2 model (peptide) substrate."}},
  "note": "“Also recorded” adds a separate entry of the source. Read-outs that look alike come from different tables or passages of the source.",
  "data": [
    {"compound": "CC(=O)NCC(=O)N[C@@H](CCCNC(=N)N)C(=O)N[C@@H](CCCNC(=N)N)C(=O)N[C@H](C(=O)N[C@@H](CO)C(=O)N[C@@H](CCCNC(=N)N)C(=O)N[C@@H](CCCNC(=N)N)C(=O)N[C@@H](CCCCN)C(=O)N[C@@H](CCCNC(=N)N)C(=O)N[C@@H](C)C(=O)N[C@@H](CCCCN)C(=O)N[C@H](C(=O)N[C@@H](CCC(=O)O)C(=O)N[C@@H](Cc1ccc(O)cc1)C(N)=O)C(C)C)[C@@H](C)O", "note": "[NLS]", "values": [
      {"measurement": "effect of peptide on LSD1 demethylation activity (absorbance vs time)", "setting": "[1]; listed as NLS peptide", "result": "inhibits LSD1; also recorded: both inhibit LSD1 activity; also recorded: acted as an inhibitor"},
      {"measurement": "Ki", "setting": "[1]", "result": "3.3 ± 0.6", "unit": "µM"},
      {"measurement": "mode of inhibition", "setting": "[1]; Lineweaver Burk plot, 0-10 μM NLS peptide, H3K4me2 peptide substrate", "result": "competitive inhibition; also recorded: competitive inhibitor"},
      {"measurement": "IC50", "setting": "[2]", "result": "30.4 ± 3.2", "unit": "µM"}
    ]},
    {"compound": "ARTKQTARKSTG [H3 (1−12), histone H3 peptide residues 1-12]", "values": [
      {"measurement": "Ki", "setting": "[3]; supplement numbering ref 5, 6", "result": 199, "unit": "µM"}
    ]},
    {"compound": "ARTKmeQTARKSpTGGKAPRKQLA [H3(1-21) K4me S10p]", "values": [
      {"measurement": "Ki", "setting": "[3]; supplement numbering ref 5, 6", "result": 31, "unit": "µM"}
    ]},
    {"compound": "ARTKmeQTARmeKSTGGKAPRKQLA [H3(1-21)K4meR8me]", "values": [
      {"measurement": "Ki", "setting": "[3]; supplement numbering ref 7", "result": 100, "unit": "µM"}
    ]},
    {"compound": "ARTKpropQTARKSTGGKAPRKQLA [H3(1-21) K4propargylamine]", "values": [
      {"measurement": "Ki", "setting": "[3]; supplement numbering ref 9", "result": 16.6, "unit": "µM"}
    ]},
    {"compound": "Ac-GRRDDRRKRAKVEY-NH2 [NLS-p∗]", "values": [
      {"measurement": "effect of peptide on LSD1 demethylation activity (absorbance vs time)", "setting": "[1]", "result": "do not obstruct LSD1-catalyzed demethylation"},
      {"measurement": "effect of peptide on LSD1 demethylation activity (absorbance vs time)", "setting": "[1]; listed as NLSp*", "result": "does not inhibit LSD1-catalyzed"},
      {"measurement": "fold weaker inhibition (Ki) compared to the NLS peptide", "setting": "[1]", "result": "approximately 12 fold"},
      {"measurement": "fold weaker inhibition (Ki) compared to the NLS peptide", "setting": "[1]; listed as NLSp*", "result": 10, "unit": "fold"},
      {"measurement": "Ki", "setting": "[1]", "result": "38.7 ± 1.8", "unit": "µM"}
    ]},
    {"compound": "GRRTSRRKme2RAKVEY [NLS-K114me2, dimethylated K114 NLS peptide, aa 107–120]", "values": [
      {"measurement": "acts as substrate of LSD1", "setting": "[1]", "result": "does not serve as a substrate"},
      {"measurement": "acts as substrate of LSD1", "setting": "[1]; listed as NLS K114me2", "result": "does NOT act as a substrate of LSD1"},
      {"measurement": "effect of peptide on LSD1 demethylation activity (absorbance vs time)", "setting": "[1]", "result": "inhibition of demethylation activity was retained"},
      {"measurement": "effect of peptide on LSD1 demethylation activity (absorbance vs time)", "setting": "[1]; listed as NLS K114 me2", "result": "both inhibit LSD1 activity"}
    ]},
    {"compound": "PRGFLVKRSKKSTPVSYRVR [INSM1 (1−20)]", "values": [
      {"measurement": "Ki", "setting": "[3]; supplement numbering ref 4", "result": 0.24, "unit": "µM"}
    ]},
    {"compound": "PRSFLVRKPSDPNRKPNYSE [SNAIL (1-20)]", "values": [
      {"measurement": "Ki", "setting": "[3]; supplement numbering ref 4", "result": 0.21, "unit": "µM"}
    ]},
    {"compound": "QTARKSTGGKAPRKQLA [H3(5-21), histone H3 peptide residues 5-21]", "values": [
      {"measurement": "Ki", "setting": "[3]; supplement numbering ref 5, 6", "result": 87, "unit": "µM"}
    ]},
    {"compound": "REMDESLANLSEDEYY [P1, negatively charged LSD1 peptide region a.a; 121–136]", "values": [
      {"measurement": "effect of peptide on LSD1 demethylation activity (absorbance vs time)", "setting": "[1]", "result": "do not inhibit; also recorded: did not influence the demethylation reaction"}
    ]},
    {"compound": "YSEEERNAKAEKEKK [P2, neutral-charged α-helical containing LSD1 peptide region a.a; 137–151]", "values": [
      {"measurement": "effect of peptide on LSD1 demethylation activity (absorbance vs time)", "setting": "[1]", "result": "do not inhibit; also recorded: did not influence the demethylation reaction"}
    ]}
  ]
}
